# Measurements taken from patent publication US20090311695A1, “Method” (priority 2008, published 2009).
# Entries after “also recorded” stand apart in the source; their conditions may differ. Read-outs that look alike come from different tables or passages of the source.
# Key:
# [1] = test system: translation readthrough of PTC in exon 12 of BMPR2; assay type: cell-based; conditions: for population of dual-fluorescence cells (FACS): 293 cells transfected with pTN142; for ratio of DsRed-Express and GFP production (efficiency of readthrough), plate readers: fluorescence monochrome and filter plate readers, data not shown
# Description: (§1) (A) An outline of the single cell-based translation readthrough assay. The principle of the reporter system is similar to that mentioned in FIG. 2 with the exception that it contains a translation termination signal in the exon 12. In the event of translation termination at the internal PTC, a DsRed-Express protein will be generated whilst readthrough will produce a fusion dual-fluorescence protein (DsRed Express and GFP). Thus the ratio of two fluorescence intensities determines the efficiency of readthrough. […] (C) Cell expressing fluorescence proteins were analyzed with FACS. Cell transfected with pTN139 generated the highest population of dual-fluorescence cells (FIG. 5Civ), whilst pTN142 produced no or few dual-fluorescence cells. […] GFP (FIG. 5Cii) and DsRed-Express (FIG. 5Ciii) proteins expressing cells were used as fluorescence positive control, whilst untransfected cells (FIG. 5Ci) were used as negative control. (FIG. 5D) The outline of the enzymatic reporter was published elsewhere (Kollmus et al., 1996, Nasim et al., 2000). In brief, translation termination in the internal stop signal generates β-gal protein. In the event of readthrough, a β-gal-luciferase fusion protein will be produced. The ratio of these two proteins was used as the efficiency of readthrough event. For this purpose, two independent constructs were used in our experiment. Construct H8 (pBPLUGA; Kollmus et al., 1996) contains a 17 bp DNA fragment containing an in-frame stop signal. H8A construct (Nasim et al., 2000) is similar to H8 with the exception that it contains a 91 bp DNA fragment.
# Single-cell based dual-fluorescence splicing assay constructs were generated by replacing exon 9 of plasmid pTN136 with exon 12 of BMPR2 gene using PCR mutagenesis (14). The resultant splicing unit was cloned into Xho I and Bam HI sites of DsRed Express-GFP vector (Siskoglu and Nasim, unpublished data) and designated as pTN139. Further plasmids pTN140, pTN141, pTN142 and pTN143 bearing mutations in exon 12 at position c.2292insA, c.2386delG, c.2620G>T and c.2695C>T, respectively were generated. A double intron splicing unit was constructed by fusing an additional splicing unit of HC9 (15) at the 3′end of the Ad-Exon 12 unit of pTN136. The splicing unit of HC9 comprises the last 17 nucleotides of the non-muscle exon (NM) of human TPM3 gene together with the following 80-nucleotide intron, which was joined to a fragment of human dystrophin gene containing the last 260 nucleotides of intron 11 followed by the 100 nucleotides of exon 12. The double-intron splicing unit was cloned into EcoRI and KpnI sites of DsRed-Express-GFP vector and designated as pTN153. Plasmid pTN155 is a derivative of pTN153 and harbours a mutation in exon 12 at position c.2386delG.
# Gene Transfer, cell culture, enzymatic assay, fluorescence microscopy and fluorescence activated cell sorting (FACS) were carried as described elsewhere (11), (15), (17). Amount of plasmid DNA transfected into HEK293 cell line varied from (from 30 ng to 1 μg) assay to assay.
# In addition to PAH, there are also more than 1800 genetic disorders caused by nonsense mutation. Two approaches are currently available to overcome nonsense-associated genetic diseases. […] The aim of other approach is to suppress pre-mature termination; in other words to promote translation readthrough. As the dual-fluorescence assay was successfully utilized to characterize the PTC, we next wished to investigate whether the system can be used to identify factors that promote translation readthrough. To achieve this, we introduced a nonsense mutation into the exon 12 of the BMPR2 gene in such a way that it incorporates a PTC (FIG. 5A). In the event of readthrough, a fusion dual-fluorescence protein (DsRed Express and GFP) will be produced, whilst translation termination generates only DsRed-Express protein. Thus the ratio of two fluorescence intensities determines the efficiency of readthrough. […]
# [2] = test system: translation readthrough of in-frame stop signal; assay: enzyme-based dual-reporter (β-gal-luciferase) readthrough assay, constructs H8 and H8A; assay type: cell-based
# Description: as §1, with “(FIG. 5D) The outline of the enzymatic reporter was published elsewhere (Kollmus et al., 1996, Nasim et al., 2000). In brief, translation termination in the internal stop signal generates β-gal protein.” left out, “For this purpose, two independent constructs were used in our experiment. Construct H8 (pBPLUGA; Kollmus et al., 1996) contains a 17 bp DNA fragment containing an in-frame stop signal. H8A construct (Nasim et al., 2000) is similar to H8 with the exception that it contains a 91 bp DNA fragment.” left out
# To further validate the efficiency determined by fluorescence assays, we employed an enzyme-based reporter assay. […] In the event of translation termination, β-gal protein is generated, whilst readthrough produces a β-gal and luciferase fusion protein. […]
# [3] = test system: nonsense codon read-through; conditions: literature values; cited from earlier work
# [4] = test system: nonsense mediated RNA decay; assay: β-galactosidase reporter based NMD assay (gal-luc ratio) with PTC bearing double intron splicing unit; assay type: cell-based; conditions: reporter with c.2386delG or c.2292insA PTC, after treatment with translation/NMD inhibitor
# Description: (A) The test system for determining nonsense mediated RNA decay in mammalian cells based on the reporter gene encoding β-galactosidase, which was fused in-frame with the PTC (c.2386delG, c.2292insA) bearing recombinant double intron splicing unit (FIG. 4A). Plasmids bearing c.2292insA (pTN147) and c.2386delG (pTN148) mutations were transfected into HE 293 cells and grown in the presence or absence of NMD inhibitors including puromycin and cycloheximide. The treatments increased the gal-luc ratio of the reporter constructs between 5 and 20 fold (FIG. 4B) compared with untreated control. Compared with cells transfected with the reporter alone, the gal-luc ratio increased between 3 and 6 fold when hUpf1 RNA was knock down by RNAi (FIG. 4C).
# Constructs for determining NMD were generated by fusing the double-intron splicing unit of pTN155 at the end of β-galactosidase reporter gene. The double-intron splicing intron was cloned in two steps into pBPLUGA (16). First the splicing unit of HC9 as described above was PCR amplified and cloned into KpnI and BamHI sites of pBPLUGA. The splicing unit of pTN136 was then cloned into SalI/XhoI and BamHI sites of the newly constructed plasmid and designated as pTN148. […]
# Gene Transfer, cell culture, enzymatic assay, fluorescence microscopy and fluorescence activated cell sorting (FACS) were carried as described elsewhere (11), (15), (17). […]
# [5] = test system: translation readthrough of in-frame PTC; assay: swapped GFP-DsRedExpress dual-fluorescence readthrough assay, plate reader; assay type: cell-based; conditions: HEK293 cells, medium with 0.1% fetal bovine serum, 3-5 days, BMG Labtech plate reader
# Description: An outline of the dual-fluorescence reporter. The underlying principle of the reporter is similar to that mentioned above with the exception that the DsRed-express gene is located downstream of the GFP reporter (FIG. 7A). Following transfection the reporter harbouring an in-frame PTC produced only GFP protein (FIG. 7B). The reporter produced both GFP and DsRedExpress proteins following the exchange of the PTC to a sense codon.
# A step-by-step outline of the translation readthrough assay (FIG. 8A).
# A potential complication of the fluorescence approach was that of an autofluorescence which might interfere with the GFP fluorescence. To address this potential limitation, another set of vector was constructed. In this set of vectors the GFP and DsRed-Express reporters were swapped in such that the GFP is expressed regardless of translation readthrough, whilst the readthrough activates the expression of DsRed-Express protein (FIG. 7A). […] The reporter produced both GFP and DsRed-Express dual-fluorescences once the PTC codon was changed to a sense codon.
# We next wished to determine the ratio of DsRed-Express and GFP production, which represents the efficiency of readthrough (FIG. 8A). […] The growth medium was discarded, cells were washed with PBS and the fluorescence intensities were determined using a fluorescence (BMG Labtech) plate reader.
Compound,population of dual-fluorescence cells (FACS) [1],"ratio of DsRed-Express and GFP production (efficiency of readthrough), plate readers [1]",ratio of gal-luc activity (readthrough efficiency) [2],increase in the reporter protein [4] [fold],also measured
CN[C@@H]1[C@@H](O)[C@@H](O[C@@H]2[C@@H](O)[C@H](O[C@H]3O[C@H]([C@@H](C)O)[C@@H](O)[C@H](O)[C@H]3N)[C@@H](N)C[C@H]2N)OC[C@]1(C)O [G418 sulphate],markedly increased,promoted translation readthrough,promoted readthrough efficiency; also recorded: markedly increased,,"population of dual-fluorescence cells (FACS) ([1]; listed as G418): significantly high population of dual-fluorescence cells; dual-fluorescence of cells ([1]; 293 cells, PTC construct, 5 days after treatment): generated dual-fluorescence"
O=C(O)c1cccc(-c2noc(-c3ccccc3F)n2)c1 [PTC124],,,,,read-through efficiencies [3]: 2-10%
C[C@@H]1C[C@@H]([C@H](O)CC2CC(=O)NC(=O)C2)C(=O)[C@@H](C)C1 [cycloheximide],,,,5,
COc1ccc(C[C@H](N)C(=O)N[C@H]2[C@@H](O)[C@H](n3cnc4c(N(C)C)ncnc43)O[C@@H]2CO)cc1 [puromycin],,,,20,
gentamicin,significantly high population of dual-fluorescence cells; also recorded: markedly increased,promoted translation readthrough,promoted readthrough efficiency,,ratio of GFP and DsRedExpress fluorescence intensities (efficiency of readthrough) [5]: promoted the ratio of GFP and DsRedExpress fluorescence intensities; also recorded: promoted translation readthrough
